Measured values reported in ChEMBL document CHEMBL1201862, “PubChem BioAssay data set” (2004).
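Protocol summary: plate cells (96-well), add compound at 5 concentrations, incubate 48 h, interpolate endpoints linearly. Abbreviation: GI50, concentration required for 50% inhibition of growth.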 Calls of active or inactive are those of the source. No stated cut-off is given here; in the data, active = GI50 up to about 1.1 µM and inactive = higher.

Tests used:
Test in all cases: NCI-60 cell line screen, 48 h
MCF7 = system: MCF7
EKVX = system: EKVX
HCT-116 = system: HCT-116
T47D = system: T47D
SK-OV-3 = system: SK-OV-3
SR = system: SR
NCI-H460 = system: NCI-H460
HL-60 = system: HL-60
SK-MEL-28 = system: SK-MEL-28
786-0 = system: 786-0
NCI/ADR-RES = system: NCI/ADR-RES
HCT-15 = system: HCT-15
IGROV-1 = system: IGROV-1
SK-MEL-5 = system: SK-MEL-5
RPMI-8226 = system: RPMI-8226
MDA-N = system: MDA-N
A549 = system: A549
TK-10 = system: TK-10
RXF 393 = system: RXF 393
OVCAR-5 = system: OVCAR-5
ACHN = system: ACHN
SF-268 = system: SF-268
CAKI-1 = system: CAKI-1
HT-29 = system: HT-29
OVCAR-4 = system: OVCAR-4
CCRF-CEM = system: CCRF-CEM
SF-295 = system: SF-295
OVCAR-8 = system: OVCAR-8
HCC 2998 = system: HCC 2998
NCI-H23 = system: NCI-H23
MOLT-4 = system: MOLT-4
HOP-92 = system: HOP-92
Malme-3M = system: Malme-3M
DU-145 = system: DU-145
SNB-19 = system: SNB-19
SW-620 = system: SW-620
UACC-257 = system: UACC-257
HOP-62 = system: HOP-62
KM12 = system: KM12
COLO 205 = system: COLO 205
K562 = system: K562
Hs-578T = system: Hs-578T
SNB-75 = system: SNB-75
M14 = system: M14
A498 = system: A498
U-251 = system: U-251
UO-31 = system: UO-31
MDA-MB-435 = system: MDA-MB-435
NCI-H226 = system: NCI-H226
LOX IMVI = system: LOX IMVI
SK-MEL-2 = system: SK-MEL-2
SN12C = system: SN12C
MDA-MB-231 = system: MDA-MB-231
SF-539 = system: SF-539
NCI-H522 = system: NCI-H522
UACC-62 = system: UACC-62
PC-3 = system: PC-3

Question: Which results are given for C[N+]1(C)CCC(C#N)(c2ccccc2)CC1?
Answer: GI50 (MCF7): > 100 µM (inactive); GI50 (EKVX): > 100 µM (inactive); GI50 (HCT-116): > 100 µM (inactive); GI50 (T47D): > 100 µM (inactive); GI50 (SK-OV-3): > 100 µM (inactive); GI50 (SR): > 100 µM (inactive); GI50 (NCI-H460): > 100 µM (inactive); GI50 (HL-60): > 100 µM (inactive); GI50 (SK-MEL-28): > 100 µM (inactive); GI50 (786-0): > 100 µM (inactive); GI50 (NCI/ADR-RES): > 100 µM (inactive); GI50 (HCT-15): > 100 µM; GI50 (IGROV-1): > 100 µM (inactive); GI50 (SK-MEL-5): > 100 µM (inactive); GI50 (RPMI-8226): > 100 µM (inactive); GI50 (MDA-N): > 100 µM (inactive); GI50 (A549): > 100 µM (inactive); GI50 (TK-10): > 100 µM (inactive); GI50 (RXF 393): > 100 µM (inactive); GI50 (OVCAR-5): > 100 µM (inactive); GI50 (ACHN): > 100 µM (inactive); GI50 (SF-268): > 100 µM (inactive); GI50 (CAKI-1): > 100 µM (inactive); GI50 (HT-29): > 100 µM (inactive); GI50 (OVCAR-4): > 100 µM (inactive); GI50 (CCRF-CEM): 0.65 µM (active); GI50 (SF-295): > 100 µM (inactive); GI50 (OVCAR-8): > 100 µM (inactive); GI50 (HCC 2998): > 100 µM (inactive); GI50 (NCI-H23): > 100 µM (inactive); GI50 (MOLT-4): > 100 µM (inactive); GI50 (HOP-92): > 100 µM (inactive); GI50 (Malme-3M): > 100 µM (inactive); GI50 (DU-145): > 100 µM (inactive); GI50 (SNB-19): > 100 µM (inactive); GI50 (SW-620): > 100 µM (inactive); GI50 (UACC-257): > 100 µM (inactive); GI50 (HOP-62): > 100 µM (inactive); GI50 (KM12): > 100 µM (inactive); GI50 (COLO 205): > 100 µM (inactive); GI50 (K562): > 100 µM (inactive); GI50 (Hs-578T): > 100 µM (inactive); GI50 (SNB-75): 35.4 µM (inactive); GI50 (M14): > 100 µM (inactive); GI50 (A498): > 100 µM (inactive); GI50 (U-251): > 100 µM (inactive); GI50 (UO-31): > 100 µM (inactive)

Question: How did the GI50 (MCF7) turn out when COc1ccc(-n2c(=O)[nH]n(C(C)=O)c2=O)cc1 was run?
Answer: > 100 µM (inactive)

Question: And the GI50 (EKVX)?
Answer: > 100 µM (inactive)

Question: What about the GI50 (MDA-MB-435) of the same molecule?
Answer: > 100 µM (inactive)

Question: What about the GI50 (HCT-116) of the same molecule?
Answer: > 100 µM (inactive)

Question: And the GI50 (NCI-H226)?
Answer: > 100 µM (inactive)

Question: And the GI50 (SR)?
Answer: > 100 µM (inactive)

Question: And the GI50 (NCI-H460)?
Answer: > 100 µM (inactive)

Question: And the GI50 (HL-60)?
Answer: > 100 µM (inactive)

Question: And the GI50 (SK-MEL-28)?
Answer: > 100 µM (inactive)

Question: And the GI50 (786-0)?
Answer: > 100 µM (inactive)

Question: And the GI50 (NCI/ADR-RES)?
Answer: > 100 µM (inactive)

Question: And the GI50 (LOX IMVI)?
Answer: > 100 µM (inactive)

Question: And the GI50 (HCT-15)?
Answer: > 100 µM

Question: And the GI50 (IGROV-1)?
Answer: > 100 µM (inactive)

Question: What about the GI50 (SK-MEL-5) of the same molecule?
Answer: > 100 µM (inactive)

Question: What about the GI50 (RPMI-8226) of the same molecule?
Answer: > 100 µM (inactive)

Question: What about the GI50 (MDA-N) of the same molecule?
Answer: > 100 µM (inactive)

Question: And the GI50 (A549)?
Answer: > 100 µM (inactive)

Question: And the GI50 (SK-MEL-2)?
Answer: > 100 µM (inactive)

Question: And the GI50 (SN12C)?
Answer: > 100 µM (inactive)

Question: And the GI50 (TK-10)?
Answer: > 100 µM (inactive)

Question: What about the GI50 (RXF 393) of the same molecule?
Answer: > 100 µM (inactive)

Question: And the GI50 (OVCAR-5)?
Answer: > 100 µM (inactive)

Question: And the GI50 (MDA-MB-231)?
Answer: > 100 µM (inactive)

Question: What about the GI50 (ACHN) of the same molecule?
Answer: > 100 µM (inactive)

Question: And the GI50 (SF-268)?
Answer: > 100 µM (inactive)

Question: What about the GI50 (CAKI-1) of the same molecule?
Answer: > 100 µM (inactive)

Question: What about the GI50 (HT-29) of the same molecule?
Answer: > 100 µM (inactive)

Question: What about the GI50 (OVCAR-4) of the same molecule?
Answer: > 100 µM (inactive)

Question: What about the GI50 (SF-539) of the same molecule?
Answer: > 100 µM (inactive)

Question: And the GI50 (CCRF-CEM)?
Answer: > 100 µM (inactive)

Question: And the GI50 (SF-295)?
Answer: > 100 µM (inactive)

Question: And the GI50 (OVCAR-8)?
Answer: > 100 µM (inactive)

Question: What about the GI50 (NCI-H23) of the same molecule?
Answer: > 100 µM (inactive)

Question: And the GI50 (MOLT-4)?
Answer: > 100 µM (inactive)

Question: What about the GI50 (HOP-92) of the same molecule?
Answer: > 100 µM (inactive)

Question: What about the GI50 (NCI-H522) of the same molecule?
Answer: > 100 µM (inactive)

Question: And the GI50 (Malme-3M)?
Answer: > 100 µM (inactive)

Question: And the GI50 (DU-145)?
Answer: > 100 µM (inactive)

Question: What about the GI50 (UACC-62) of the same molecule?
Answer: > 100 µM (inactive)

Question: And the GI50 (SNB-19)?
Answer: > 100 µM (inactive)

Question: What about the GI50 (SW-620) of the same molecule?
Answer: > 100 µM (inactive)

Question: What about the GI50 (UACC-257) of the same molecule?
Answer: > 100 µM (inactive)

Question: And the GI50 (KM12)?
Answer: > 100 µM (inactive)

Question: What about the GI50 (COLO 205) of the same molecule?
Answer: > 100 µM (inactive)

Question: And the GI50 (K562)?
Answer: > 100 µM (inactive)

Question: What about the GI50 (PC-3) of the same molecule?
Answer: > 100 µM (inactive)

Question: And the GI50 (Hs-578T)?
Answer: > 100 µM (inactive)

Question: And the GI50 (SNB-75)?
Answer: > 100 µM (inactive)

Question: And the GI50 (M14)?
Answer: > 100 µM (inactive)

Question: And the GI50 (A498)?
Answer: > 100 µM (inactive)

Question: And the GI50 (U-251)?
Answer: > 100 µM (inactive)

Question: What about the GI50 (UO-31) of the same molecule?
Answer: > 100 µM (inactive)
